Data reported in patent publication US20230146455A1, “TREATMENT OF INFLAMMATORY DISEASES WITH PEPTIDES AND PHARMACEUTICAL COMPOSITIONS” (Yuyu Pharma, Inc., priority 2020, published 2023).
Values joined by “and” are separate entries in the source; they are usually repeats but may differ in a detail not shown here. Equal entries are not always repeated. Where a SMILES comes first, the peptide text is derived from it. [ ]: non-standard residue; d: D form. Hyp = O=C(O)[C@@H]1C[C@@H](O)CN1

Key:
CCL3/MIP-1 alpha = assay: Example 9 Luminex, LPS hPBMCs: CCL3/MIP-1 alpha; format: cell-based, human
Experimental: (§1) Treatment Human PBMCs were pretreated with YY-101, YDE-011 and YDE-043 or reference compound; Xiidra® at various concentration (ranging from 1 nM to 100 uM) for 2 h before stimulation. An equal volume of 0.5% DMSO was used as a vehicle control. Then, the cells were treated with LPS at 5 ug/ml. The supernatants from treated cells were harvested at 24 h and placed in a 96 well for Luminex cytokine & chemokine profiling using a Luminex 200 multiplex assay (Luminex; R&D system, USA).
(§2) The main study arm with triplicate wells per group in a 24-well plate: • 1. Blank • 2. PBMC: 0.5% DMSO • 3. PBMC+LPS (5 ug/ml) • 4. PBMC+YY-101 100 uM • 5. PBMC+YY-101 10 uM • 6. PBMC+YY-101 1 uM • 7. PBMC+YY-101 0.1 uM • 8. PBMC+YY-101 0.01 uM • 9. PBMC+LPS (5 ug/ml)+Xiidra®100 uM • 10. PBMC+LPS (5 ug/ml)+Xiidra® 10 uM • 11. PBMC+LPS (5 ug/ml)+Xiidra® 1 uM • 12. PBMC+LPS (5 ug/ml)+Xiidra®0.1 uM • 13. PBMC+LPS (5 ug/ml)+Xiidra®0.01 uM • 14. PBMC+LPS (5 ug/ml)+Xiidra®0.001 uM • 15. PBMC+LPS (5 ug/ml)+YY-101 100 uM • 16. PBMC+LPS (5 ug/ml)+YY-101 10 uM • 17. PBMC+LPS (5 ug/ml)+YY-101 1 uM • 18. PBMC+LPS (5 ug/ml)+YY-101 0.1 uM • 19. PBMC+LPS (5 ug/ml)+YY-101 0.01 uM • 20. PBMC+LPS (5 ug/ml)+YY-101 0.001 uM • 21. PBMC+LPS (5 ug/ml)+YDE-011 100 uM • 22. PBMC+LPS (5 ug/ml)+YDE-011 10 uM • 23. PBMC+LPS (5 ug/ml)+YDE-011 1 uM • 24. PBMC+LPS (5 ug/ml)+YDE-011 0.1 uM • 25. PBMC+LPS (5 ug/ml)+YDE-011 0.01 uM • 26. PBMC+LPS (5 ug/ml)+YDE-011 0.001 uM • 27. PBMC+LPS (5 ug/ml)+YDE-043 100 uM • 28. PBMC+LPS (5 ug/ml)+YDE-043 10 uM • 29. PBMC+LPS (5 ug/ml)+YDE-043 1 uM • 30. PBMC+LPS (5 ug/ml)+YDE-043 0.1 uM • 31. PBMC+LPS (5 ug/ml)+YDE-043 0.01 uM • 32. PBMC+LPS (5 ug/ml)+YDE-043 0.001 uM
(§3) Multiplex assay was used to measure 30 cytokines and chemokines. The 1:2, 1:10 and 1:200 diluted cell supernatant and serial dilution of the standard were dispensed into a 96 well plate at 50 ul/well. Then, the pre-mixed cocktail of antibody-coated magnetic beads was dispensed at 50 ul/well and incubated at room temperature for 2 h in a horizontal orbital microplate shaker at 800±500 rpm. The beads were washed using a magnetic device to prevent loss. The biotin-antibody was dispensed in 50 ul of each well and incubated at room temperature for 1 h in a shaker at 800±500 rpm. After washing, streptavidin-PE was added at 50 ul/well and incubated at room temperature for 30 min in a shaker under the same conditions. Finally, after washing, wash buffer (100 ul/well) was added to the plate and incubated in a shaker for 2 min. The Luminex™ 200 setting were set according to the manufacturer's protocol. The data was calculated with a standard five-parameter logistic nonlinear regression analysis of the data (xPonent software 4.2, USA). The levels of cytokine/chemokine are normalized to the live cell counts (1×10^5 cells/mL) and presented as concentrations per mL (pg/mL or ng/mL).

IL-4 = assay: Example 9 Luminex, LPS hPBMCs: IL-4; format: cell-based, human
Experimental: as §1, §2, §3

[1] = PBMC + LPS(5 ug/ml) + test article 0.001 uM, Mean
[2] = PBMC + LPS(5 ug/ml) + test article 0.001 uM, individual replicates
[3] = PBMC + LPS(5 ug/ml) + test article 0.01 uM, Mean
[4] = PBMC + LPS(5 ug/ml) + test article 0.01 uM, individual replicates
[5] = PBMC + LPS(5 ug/ml) + test article 0.1 uM, Mean
[6] = PBMC + LPS(5 ug/ml) + test article 0.1 uM, individual replicates
[7] = PBMC + LPS(5 ug/ml) + test article 1 uM, Mean
[8] = PBMC + LPS(5 ug/ml) + test article 1 uM, individual replicates
[9] = PBMC + LPS(5 ug/ml) + test article 10 uM, Mean
[10] = PBMC + LPS(5 ug/ml) + test article 10 uM, individual replicates
[11] = PBMC + LPS(5 ug/ml) + test article 100 uM, Mean
[12] = PBMC + LPS(5 ug/ml) + test article 100 uM, individual replicates
[13] = PBMC + LPS(5 ug/ml) + test article 0.001 uM, single replicates
[14] = PBMC + LPS(5 ug/ml) + test article 0.01 uM, single replicates
[15] = PBMC + LPS(5 ug/ml) + test article 0.1 uM, single replicates
[16] = PBMC + LPS(5 ug/ml) + test article 1 uM, single replicates
[17] = PBMC + LPS(5 ug/ml) + test article 10 uM, single replicates
[18] = PBMC + LPS(5 ug/ml) + test article 100 uM, single replicates

Question: What does the source list for `CC(C)C[C@H](NC(=O)CNC(=O)[C@H](CC(C)C)NC(=O)[C@H](CCC(N)=O)NC(=O)CNC(=O)[C@@H]1C[C@@H](O)CN1)C(=O)N[C@@H](C)C(=O)NCC(=O)N1CCC[C@H]1C(=O)N[C@@H](CCCCN)C(=O)O` [YDE-011] (H-[Hyp]GQLGLAGPK-OH)?
Answer: Concentration (CCL3/MIP-1 alpha; [1]): 7478.7 pg/mL; conc/live cell (CCL3/MIP-1 alpha; [1]): 1414.4 pg/10^5; Concentration (CCL3/MIP-1 alpha; [2]): 7525.9 pg/mL and 7321.9 pg/mL and 7588.4 pg/mL; conc/live cell (CCL3/MIP-1 alpha; [2]): 1672.4 pg/10^5 and 1262.4 pg/10^5 and 1308.3 pg/10^5; Concentration (CCL3/MIP-1 alpha; [3]): 7584.1 pg/mL; conc/live cell (CCL3/MIP-1 alpha; [3]): 1304.0 pg/10^5; Concentration (CCL3/MIP-1 alpha; [4]): 7600.8 pg/mL and 7525.9 pg/mL and 7625.5 pg/mL; conc/live cell (CCL3/MIP-1 alpha; [4]): 1225.9 pg/10^5 and 1475.7 pg/10^5 and 1210.4 pg/10^5; Concentration (CCL3/MIP-1 alpha; [5]): 7103.9 pg/mL; conc/live cell (CCL3/MIP-1 alpha; [5]): 1250.7 pg/10^5; Concentration (CCL3/MIP-1 alpha; [6]): 6974.8 pg/mL and 7334.8 pg/mL and 7002.2 pg/mL; conc/live cell (CCL3/MIP-1 alpha; [6]): 1056.8 pg/10^5 and 1467.0 pg/10^5 and 1228.5 pg/10^5; Concentration (CCL3/MIP-1 alpha; [7]): 7537.7 pg/mL; conc/live cell (CCL3/MIP-1 alpha; [7]): 1505.0 pg/10^5; Concentration (CCL3/MIP-1 alpha; [8]): 7399.2 pg/mL and 7613.2 pg/mL and 7600.8 pg/mL; conc/live cell (CCL3/MIP-1 alpha; [8]): 1345.3 pg/10^5 and 1586.1 pg/10^5 and 1583.5 pg/10^5; Concentration (CCL3/MIP-1 alpha; [9]): 7734.7 pg/mL; conc/live cell (CCL3/MIP-1 alpha; [9]): 1473.3 pg/10^5; Concentration (CCL3/MIP-1 alpha; [10]): 7962.5 pg/mL and 7373.5 pg/mL and 7868.0 pg/mL; conc/live cell (CCL3/MIP-1 alpha; [10]): 1474.5 pg/10^5 and 1271.3 pg/10^5 and 1674.0 pg/10^5; Concentration (CCL3/MIP-1 alpha; [11]): 7968.8 pg/mL; conc/live cell (CCL3/MIP-1 alpha; [11]): 1313.3 pg/10^5; Concentration (CCL3/MIP-1 alpha; [12]): 8238.4 pg/mL and 8067.3 pg/mL and 7600.8 pg/mL; conc/live cell (CCL3/MIP-1 alpha; [12]): 1350.6 pg/10^5 and 1322.5 pg/10^5 and 1266.8 pg/10^5; Concentration, Bead name: IL-4 (IL-4; [1]): 13.2 pg/mL; MFI, Bead name: IL-4 (IL-4; [1]): −0.5; conc/live cell, Bead name: IL-4 (IL-4; [1]): 2.6 pg/10^5; Concentration, Bead name: IL-4 (IL-4; [13]): 18.4 pg/mL and 7.7 pg/mL and 13.6 pg/mL; MFI, Bead name: IL-4 (IL-4; [13]): 0.0 and −1.0 and −0.5; conc/live cell, Bead name: IL-4 (IL-4; [13]): 4.1 pg/10^5 and 1.3 pg/10^5 and 2.3 pg/10^5; Concentration, Bead name: IL-4 (IL-4; [3]): 23.7 pg/mL; MFI, Bead name: IL-4 (IL-4; [3]): 0.7; conc/live cell, Bead name: IL-4 (IL-4; [3]): 4.1 pg/10^5; Concentration, Bead name: IL-4 (IL-4; [14]): 18.4 pg/ml and 26.4 pg/ml (2×); MFI, Bead name: IL-4 (IL-4; [14]): 0.0 and 1.0 (2×); conc/live cell, Bead name: IL-4 (IL-4; [14]): 2.9 pg/10^5 and 4.3 pg/10^5 and 5.2 pg/10^5; Concentration, Bead name: IL-4 (IL-4; [5]): 22.4 pg/mL; MFI, Bead name: IL-4 (IL-4; [5]): −0.3; conc/live cell, Bead name: IL-4 (IL-4; [5]): 2.5 pg/10^5; Concentration, Bead name: IL-4 (IL-4; [15]): 18.4 pg/mL and 26.4 pg/mL; MFI, Bead name: IL-4 (IL-4; [15]): 0.0 and −2.0 and 1.0; conc/live cell, Bead name: IL-4 (IL-4; [15]): 2.8 pg/10^5 and 0.0 pg/10^5 and 4.6 pg/10^5; Concentration, Bead name: IL-4 (IL-4; [7]): 18.4 pg/mL; MFI, Bead name: IL-4 (IL-4; [7]): −0.5; conc/live cell, Bead name: IL-4 (IL-4; [7]): 2.4 pg/10^5; Concentration, Bead name: IL-4 (IL-4; [16]): 18.4 pg/mL; MFI, Bead name: IL-4 (IL-4; [16]): 0.0 (2×) and −1.5; conc/live cell, Bead name: IL-4 (IL-4; [16]): 3.3 pg/10^5 and 0.0 pg/10^5 and 3.8 pg/10^5; Concentration, Bead name: IL-4 (IL-4; [9]): 16.8 pg/mL; MFI, Bead name: IL-4 (IL-4; [9]): −0.2; conc/live cell, Bead name: IL-4 (IL-4; [9]): 3.2 pg/10^5; Concentration, Bead name: IL-4 (IL-4; [17]): 18.4 pg/ml (2×) and 13.6 pg/ml; MFI, Bead name: IL-4 (IL-4; [17]): 0.0 (2×) and −0.5; conc/live cell, Bead name: IL-4 (IL-4; [17]): 3.4 pg/10^5 and 2.3 pg/10^5 and 3.9 pg/10^5; Concentration, Bead name: IL-4 (IL-4; [11]): 7.7 pg/mL; MFI, Bead name: IL-4 (IL-4; [11]): −1.2; conc/live cell, Bead name: IL-4 (IL-4; [11]): 0.8 pg/10^5; Concentration, Bead name: IL-4 (IL-4; [18]): 7.7 pg/mL; MFI, Bead name: IL-4 (IL-4; [18]): −1.0 (2×) and −1.5; conc/live cell, Bead name: IL-4 (IL-4; [18]): 1.3 pg/10^5 (2×) and 0.0 pg/10^5
